Tests used:
Assay in all cases: relative viability (nuclei count vs DMSO), 5 days (fraction); higher = more cells survive
NCI-H647 = system: NCI-H647
In short: (§1)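 For relative viability, nuclei counts in treated wells were divided by those in vehicle wells. Lung cancer cell lines had been pin-tool dosed in 1536-well plates the day after seeding and cultured for 5 days, then fixed and stained in one step (final 0.05% Triton X-100, 1% formaldehyde, 1 ug/ml Hoechst) and imaged at 4×. Doses were one drug alone or a fixed anchor-drug dose plus five library-drug doses (not always all listed) in √10 steps, and values are duplicate-plate medians.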

NCI-H1437 = system: NCI-H1437
In short: as §1

NCI-H1651 = system: NCI-H1651
In short: as §1

HCC-78 = system: HCC-78
In short: as §1

NCI-H661 = system: NCI-H661
In short: as §1

NCI-H1395 = system: NCI-H1395
In short: as §1

NCI-H1793 = system: NCI-H1793
In short: as §1

NCI-H23 = system: NCI-H23
In short: as §1

NCI-H1734 = system: NCI-H1734
In short: as §1

EMC-BAC-2 = system: EMC-BAC-2
In short: as §1

LCLC-103H = system: LCLC-103H
In short: as §1

ABC-1 = system: ABC-1
In short: as §1

NCI-H1792 = system: NCI-H1792
In short: as §1

NCI-H2405 = system: NCI-H2405
In short: as §1

RERF-LC-KJ = system: RERF-LC-KJ
In short: as §1

NCI-H1915 = system: NCI-H1915
In short: as §1

SK-LU-1 = system: SK-LU-1
In short: as §1

201T = system: 201T
In short: as §1

EPLC-272H = system: EPLC-272H
In short: as §1

NCI-H2023 = system: NCI-H2023
In short: as §1

NCI-H1975 = system: NCI-H1975
In short: as §1

UMC-11 = system: UMC-11
In short: as §1

LOU-NH91 = system: LOU-NH91
In short: as §1

SMILES: Cc1cnc(-c2cnc(NCCNc3ccc(C#N)cn3)nc2-c2ccc(Cl)cc2Cl)[nH]1 + O=C(c1cc(Cc2n[nH]c(=O)c3ccccc23)ccc1F)N1CCN(C(=O)C2CC2)CC1 [Olaparib] (partner 8 µM)
- relative viability (NCI-H647; first compound 0.08 µM): 0.528
- relative viability (NCI-H647; first compound 0.253 µM): 0.558
- relative viability (NCI-H647; first compound 0.8 µM): 0.528
- relative viability (NCI-H647; first compound 2.53 µM): 0.429
- relative viability (NCI-H1437; first compound 0.08 µM): 0.605
- relative viability (NCI-H1437; first compound 0.253 µM): 0.606
- relative viability (NCI-H1437; first compound 0.8 µM): 0.596
- relative viability (NCI-H1437; first compound 2.53 µM): 0.598
- relative viability (NCI-H1651; first compound 0.08 µM): 0.175
- relative viability (NCI-H1651; first compound 0.253 µM): 0.192
- relative viability (NCI-H1651; first compound 0.8 µM): 0.2
- relative viability (NCI-H1651; first compound 2.53 µM): 0.182
- relative viability (HCC-78; first compound 0.08 µM): 0.865
- relative viability (HCC-78; first compound 0.253 µM): 0.588
- relative viability (HCC-78; first compound 0.8 µM): 0.737
- relative viability (HCC-78; first compound 2.53 µM): 0.834
- relative viability (NCI-H661; first compound 0.08 µM): 0.736
- relative viability (NCI-H661; first compound 0.253 µM): 0.759
- relative viability (NCI-H661; first compound 0.8 µM): 0.7
- relative viability (NCI-H661; first compound 2.53 µM): 0.654
- relative viability (NCI-H1395; first compound 0.08 µM): 0.496
- relative viability (NCI-H1395; first compound 0.253 µM): 0.435
- relative viability (NCI-H1395; first compound 0.8 µM): 0.504
- relative viability (NCI-H1395; first compound 2.53 µM): 0.47
- relative viability (NCI-H1793; first compound 0.08 µM): 1.01
- relative viability (NCI-H1793; first compound 0.253 µM): 0.755
- relative viability (NCI-H1793; first compound 0.8 µM): 0.957
- relative viability (NCI-H1793; first compound 2.53 µM): 0.867
- relative viability (NCI-H23; first compound 0.08 µM): 0.316
- relative viability (NCI-H23; first compound 0.253 µM): 0.297
- relative viability (NCI-H23; first compound 0.8 µM): 0.303
- relative viability (NCI-H23; first compound 2.53 µM): 0.367
- relative viability (NCI-H1734; first compound 0.08 µM): 0.635
- relative viability (NCI-H1734; first compound 0.253 µM): 0.622
- relative viability (NCI-H1734; first compound 0.8 µM): 0.644
- relative viability (NCI-H1734; first compound 2.53 µM): 0.516
- relative viability (EMC-BAC-2; first compound 0.08 µM): 0.498
- relative viability (EMC-BAC-2; first compound 0.253 µM): 0.466
- relative viability (EMC-BAC-2; first compound 0.8 µM): 0.504
- relative viability (EMC-BAC-2; first compound 2.53 µM): 0.397
- relative viability (LCLC-103H; first compound 0.08 µM): 0.837
- relative viability (LCLC-103H; first compound 0.253 µM): 0.673
- relative viability (LCLC-103H; first compound 0.8 µM): 0.731
- relative viability (LCLC-103H; first compound 2.53 µM): 0.818
- relative viability (ABC-1; first compound 0.08 µM): 0.788
- relative viability (ABC-1; first compound 0.253 µM): 0.834
- relative viability (ABC-1; first compound 0.8 µM): 0.78
- relative viability (ABC-1; first compound 2.53 µM): 0.763
- relative viability (NCI-H1792; first compound 0.08 µM): 0.377
- relative viability (NCI-H1792; first compound 0.253 µM): 0.357
- relative viability (NCI-H1792; first compound 0.8 µM): 0.345
- relative viability (NCI-H1792; first compound 2.53 µM): 0.397
- relative viability (NCI-H2405; first compound 0.08 µM): 0.882
- relative viability (NCI-H2405; first compound 0.253 µM): 0.771
- relative viability (NCI-H2405; first compound 0.8 µM): 0.88
- relative viability (NCI-H2405; first compound 2.53 µM): 0.661
- relative viability (RERF-LC-KJ; first compound 0.08 µM): 0.902
- relative viability (RERF-LC-KJ; first compound 0.253 µM): 0.65
- relative viability (RERF-LC-KJ; first compound 0.8 µM): 0.839
- relative viability (RERF-LC-KJ; first compound 2.53 µM): 0.858
- relative viability (NCI-H1915; first compound 0.08 µM): 0.253
- relative viability (NCI-H1915; first compound 0.8 µM): 0.264
- relative viability (NCI-H1915; first compound 2.53 µM): 0.239
- relative viability (SK-LU-1; first compound 0.08 µM): 0.455
- relative viability (SK-LU-1; first compound 0.253 µM): 0.479
- relative viability (SK-LU-1; first compound 0.8 µM): 0.463
- relative viability (SK-LU-1; first compound 2.53 µM): 0.472
- relative viability (201T; first compound 0.08 µM): 0.848
- relative viability (201T; first compound 0.8 µM): 0.81
- relative viability (201T; first compound 2.53 µM): 0.834
- relative viability (EPLC-272H; first compound 0.08 µM): 0.731
- relative viability (EPLC-272H; first compound 0.253 µM): 0.779
- relative viability (EPLC-272H; first compound 0.8 µM): 0.739
- relative viability (EPLC-272H; first compound 2.53 µM): 0.666
- relative viability (NCI-H2023; first compound 0.08 µM): 0.502
- relative viability (NCI-H2023; first compound 0.253 µM): 0.51
- relative viability (NCI-H2023; first compound 0.8 µM): 0.439
- relative viability (NCI-H2023; first compound 2.53 µM): 0.36
- relative viability (NCI-H1975; first compound 0.08 µM): 0.759
- relative viability (NCI-H1975; first compound 0.253 µM): 0.715
- relative viability (NCI-H1975; first compound 0.8 µM): 0.672
- relative viability (NCI-H1975; first compound 2.53 µM): 0.502
- relative viability (UMC-11; first compound 0.08 µM): 0.413
- relative viability (UMC-11; first compound 0.253 µM): 0.997
- relative viability (UMC-11; first compound 0.8 µM): 0.343
- relative viability (UMC-11; first compound 2.53 µM): 0.352
- relative viability (LOU-NH91; first compound 0.08 µM): 0.94
- relative viability (LOU-NH91; first compound 0.253 µM): 0.868
- relative viability (LOU-NH91; first compound 0.8 µM): 0.962
- relative viability (LOU-NH91; first compound 2.53 µM): 0.877
